Results published in patent US20250032590A1, “PARATHYROID HORMONE COMPOUNDS IN THE TREATMENT OF HYPOPARATHYROIDISM” (AMOLYT PHARMA, priority 2023, published 2025).
Where two headings read alike, the source gives them in different places.

Experiments:
[1] = tested on: patients with HP; settings: cited from earlier work; for urinary calcium excretion: clinical studies; for control of calcium levels: patients with HP
[2] = tested on: PTX mice; assay: Serum calcium after single dosing in HP PTX mouse model (Example 1); format: in vivo; settings: PTX mice, single dosing; AZP-3601 20, 40 or 80 μg/kg; PTH (1-34) 200 μg/kg
Excerpt: In FIG. 1, the black line indicates the impact of PTX in mice, resulting in serum calcium levels well below normal levels.

[3] = tested on: normal cynomolgus monkeys; assay: Blood calcium after single injection in normal cynomolgus monkeys (Example 5); format: in vivo, cynomolgus monkey; settings: single dose 10 nmole/kg (AZP-3601 42.7 μg/kg, PTH (1-84) 95 μg/kg, PTH (1-34) 42 μg/kg), AZP-3601 also 10.7 μg/kg (2.5 nmole/kg)
Method: To further examine how the potent and sustained biological activity induced by AZP-3601 could translate into potential clinical benefit for […] patients, its activity was examined in normal cynomolgus monkeys, a species much closer to humans and the most relevant for first in human dose-selection. Single injections of AZP-3601 were administered to normal cynomolgus monkeys. […] The dissociation between pharmacokinetic profile and pharmacodynamic effect is due to the short circulating half-life of AZP-3601 as opposed to the prolonged signaling caused by AZP-3601's potent interaction with the R^0 conformation of the PTH1 receptor.
In a second study as illustrated in panel B of FIG. 5, monkeys were injected with a single dose of either natural PTH (1-84) at 95 μg/kg, natural PTH (1-34) at 42 μg/kg or AZP-3601 at 42.7 μg/kg, which were equal doses of 10 nmole/kg, adjusted for the molecular weight of the individual compounds. In addition, a lower dose of 10.7 μg AZP-3601/kg (2.5 nmole/kg) was also tested.

[4] = tested on: TPTX rats; assay: Distal femur BMD by qCT in TPTX rats after 14-day treatment at doses that normalize serum calcium (Example 6); format: in vivo, rat
Method: To directly compare the effect of daily subcutaneous injection of AZP-3601 to daily subcutaneous injection and continuous infusion of PTH(1-34), dose levels for each regimen that normalized serum calcium levels in TPTX rats were utilized. These doses corresponded to 50 nmoles/kg/day (205 μg/kg/day) for PTH(1-34) injected daily, 3 nmoles/kg/day (12.3 μg/kg/day) for PTH(1-34) continuously infused, and 1 nmole/kg/day (4.2 μg/kg/day) for AZP-3601 injected daily. After 14 days of treatment, femurs were collected and examined for bone mineral density (BMD) by quantitative computed tomography.

[5] = tested on: hypoparathyroid mice; settings: single sc, AZP-3601 10 to 20 nmol/kg, PTH(1-34) at a higher dose; cited from earlier work
[6] = tested on: TPTX rats; settings: rat, in vivo; cited from earlier work
[7] = tested on: patients with HP; settings: cited from earlier work
[8] = tested on: TPTX rats; assay: Serum calcium and phosphate, 28-day daily sc dosing in HP TPTX rat model (Example 2); format: in vivo; settings: once daily sc for 28 days
Method: Thyroid-parathyroidectomized, or TPTX, rats were treated with daily subcutaneous injection of AZP-3601 at doses ranging from 3.8 μg/kg/day to 30.7 μg/kg/day. Treatment was continued for 28 days. […] The increase in calcium accumulated over time (over the first 15 to 21 days), but became more constant thereafter, indicating the development of a steady-state effect (FIG. 2). Due to the cumulative effect, lower doses of AZP-3601 were required to eventually increase blood calcium levels into the normal range as compared to the dose required with a single injection.

[9] = tested on: TPTX rats; assay: BMD (DXA) and bone structure (micro-CT) in TPTX rats after repeated daily dosing (Example 7); format: in vivo, rat; settings: once daily sc, AZP-3601 3.8 to 30.7 μg/kg/day, versus vehicle
Method: To examine the effect of repeated dosing with AZP-3601, TPTX rats were treated with daily subcutaneous injections of either vehicle or AZP-3601 with doses ranging from 3.8 to 30.7 μg/kg/day (0.9-7.2 nmole/kg/day). As additional controls, a separate group of TPTX rats received daily injections of natural PTH (1-84), and a group of normal (with intact thyroid and parathyroid glands, or sham) rats were injected with vehicle. […] Both whole femurs and lumbar spine were analyzed using a technique called dual-energy x-ray absorptionametry, or DXA, which measures BMD.

**Q.** Which results are given for “Natpara™: recombinant natural human PTH ((rh)PTH(1-84)), approved adjunct to calcium and vitamin D in HP”?
**A.** urinary calcium excretion [1]: failed to demonstrate reduction of urinary calcium excretion; urinary calcium excretion ([1]; listed as (rh)PTH(1-84)): elevated urinary calcium excretion in many subjects; adverse effects ([1]; human, in vivo): adverse effects such as hyper/hypocalcemia and vasoactive events; half-life ([1]; human, in vivo): short half-life; control of calcium levels [1]: does not control calcium levels for the entire day; control of calcium levels ([1]; listed as (rh)PTH(1-84)): lack of 24-hour control of serum calcium

**Q.** For “PTH(1-34) (SVSEIQLMHNLGKHLNSMERVEWLRKKLQDVHNF) [natural PTH (1-34)]”, which “effect on serum calcium” value [2] is on record?
**A.** transient elevation in serum calcium

**Q.** What about the “effect on blood calcium, second study” value [3] of the same molecule?
**A.** only modestly increased blood calcium

**Q.** What about the “femur BMD by quantitative computed tomography, continuous infusion” value ([4]; 14 days, 3 nmoles/kg/day continuously infused) of the same molecule?
**A.** significant decrease in BMD

**Q.** What about the “femur BMD by quantitative computed tomography, daily injection” value ([4]; 14 days, PTH(1-34) 50 nmoles/kg/day, AZP-3601 1 nmole/kg/day) of the same molecule?
**A.** significant increase in BMD

**Q.** What about the “dose that normalized serum calcium levels, continuous infusion” value ([4]; continuously infused) of the same molecule?
**A.** 3 nmol/kg/day

**Q.** And the “dose that normalized serum calcium levels, daily subcutaneous injection” value ([4]; injected daily)?
**A.** 50 nmol/kg/day

**Q.** What about the “duration of decreased serum inorganic phosphorus” value [5] of the same molecule?
**A.** < 4 h

**Q.** And the “duration of increased serum calcium” value [5]?
**A.** < 8 h

**Q.** For “TransCon™PTH: sustained-release, injectable prodrug formulation of native PTH (1-34), Ascendis Pharma A/S”, which pharmacokinetic profile [6] is on record?
**A.** continuous, non-pulsatile, infusion-like pharmacokinetic profile

**Q.** And the hypercalciuria after treatment ([7]; Phase 3 trial, 6 months of treatment)?
**A.** a number of patients are still hypercalciuric

**Q.** What about the “mean T-scores” value ([7]; human, in vivo) of the same molecule?
**A.** decrease in mean T-scores

**Q.** What about the serum calcium levels ([7]; human, in vivo) of the same molecule?
**A.** provides stable serum calcium levels

**Q.** And the “mean 24-hour urine calcium levels” value ([7]; patients with HP)?
**A.** decrease mean 24-hour urine calcium levels

B1: PTH (1-84) (protein, UniProt P01270 32-115, looked up)
Parathyroid hormone: SVSEIQLMHNLGKHLNSMERVEWLRKKLQDVHNFVALGAPLAPRDAGSQRPRKKEDNVLVESHEKSLGEADKADVNVLTKAKSQ
modifications: Parathyroid hormone
notes: natural PTH (1-84), comparator in rats and monkeys
**Q.** For B1, which “effect on blood phosphate levels” value [8] is on record?
**A.** only marginal reductions in blood phosphate levels

**Q.** What about the “effect on serum/blood calcium levels” value ([8]; AZP-3601 3.8 to 30.7 μg/kg/day) of the same molecule?
**A.** no persistent increase in blood calcium levels

**Q.** What about the “effect on blood calcium, second study” value [3] of the same molecule?
**A.** only modestly increased blood calcium

**Q.** And the “BMD of whole femur and lumbar spine by DXA” value [9]?
**A.** statistically significant increase in BMD
